Molecular target: GLP-1R (Homo sapiens, UniProt P43220)
Test: GLP-1R Activation - cAMP Assay
Format: cell-based
Conditions: cAMP increase in CHO cells stably expressing GLP-1R; each compound run on one of the two cAMP assays (Assay 1 or Assay 2, not specified)
Summary of the method: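 CHO cells stably expressing GLP-1R, plated at 1,000 cells/well overnight, then equilibrated 1 h in HBSS with 20 mM Hepes and 0.1% BSA. Agonist added as 10-point dose response for 30 min at 37 °C. cAMP measured by HTRF (Cisbio Gs Dynamic kit); EC50 from sigmoidal fit.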

Chain of GLP-1R (P43220 24-463): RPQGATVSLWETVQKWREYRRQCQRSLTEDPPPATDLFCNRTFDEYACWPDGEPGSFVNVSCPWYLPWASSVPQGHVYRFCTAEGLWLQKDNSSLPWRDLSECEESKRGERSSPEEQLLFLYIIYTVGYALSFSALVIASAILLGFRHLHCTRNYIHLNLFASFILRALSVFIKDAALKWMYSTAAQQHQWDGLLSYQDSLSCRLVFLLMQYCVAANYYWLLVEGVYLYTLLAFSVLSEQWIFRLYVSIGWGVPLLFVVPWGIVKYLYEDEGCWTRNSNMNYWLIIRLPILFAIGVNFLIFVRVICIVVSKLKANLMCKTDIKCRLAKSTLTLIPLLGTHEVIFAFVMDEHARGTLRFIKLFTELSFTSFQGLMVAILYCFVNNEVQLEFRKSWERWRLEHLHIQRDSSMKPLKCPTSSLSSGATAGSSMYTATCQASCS

Row | Structure (SMILES) | EC50 [nM]
1 | CC1(C)COC[C@H]1n1c(Cc2cc(F)c(-c3cccc(OCc4ncc(Cl)cc4F)n3)cc2F)nc2ccc(C(=O)O)cc21 (single isomer, unassigned) [Example 289A] | 0.122
2 | CC1(C)COC[C@H]1n1c(Cc2cc(F)c(-c3ccc(F)c(OCc4cnc(-n5ccnn5)cc4Cl)n3)cc2F)nc2c(F)cc(C(=O)O)cc21 [Example 153, (S)-2-(4-(6-((4-chloro-6-(1H-1,2,3-triazol-1-yl)pyridin-3-yl)methoxy)-5-fluoropyridin-2-yl)-2,5-difluorobenzyl)-1-(4,4-dimethyltetrahydrofuran-3-yl)-4-fluoro-1H-benzo[d]imidazole-6-carboxylic Acid] | 0.011
3 | CC1(C)COC[C@H]1n1c(Cn2cc(F)c(-c3cccc(OCc4ccc(Cl)cc4F)n3)cc2=O)nc2c(F)cc(C(=O)O)cc21 [Example 137, (S)-2-((6-((4-chloro-2-fluorobenzyl)oxy)-5′-fluoro-2′-oxo-[2,4′-bipyridin]-1′(2′H)-yl)methyl)-1-(4,4-dimethyltetrahydrofuran-3-yl)-4-fluoro-1H-benzo[d]imidazole-6-carboxylic Acid] | 0.039
4 | N#Cc1ccc(COc2cccc(-c3cc(F)c(Cc4nc5ccc(C(=O)O)cc5n4[C@@H]4C[C@@H]4C(F)F)cc3F)n2)c(F)c1 [Example 4, 2-(4-(6-((4-cyano-2-fluorobenzyl)oxy)pyridin-2-yl)-2,5-difluorobenzyl)-1-((1R,2S)-2-(difluoromethyl)cyclopropyl)-1H-benzo[d]imidazole-6-carboxylic acid] | 2.65
5 | CC1(C)COC[C@H]1n1c(Cc2ccc(-c3ccc(F)c(OCc4cnc(-n5ccnn5)cc4Cl)n3)cc2F)nc2ccc(C(=O)O)cc21 [Example 161, (S)-2-(4-(6-((4-chloro-6-(1H-1,2,3-triazol-1-yl)pyridin-3-yl)methoxy)-5-fluoropyridin-2-yl)-2-fluorobenzyl)-1-(4,4-dimethyltetrahydrofuran-3-yl)-1H-benzo[d]imidazole-6-carboxylic Acid] | 0.015
6 | CC1(C)COCC1n1c(Cc2cc(F)c(-c3cccc(OCc4ccc(C(F)F)cc4F)n3)cc2F)nc2c(F)cc(C(=O)O)cc21 (centres unmarked) [Example 506, 2-(4-(6-((4-(difluoromethyl)-2-fluorobenzyl)oxy)pyridin-2-yl)-2,5-difluorobenzyl)-1-(4,4-dimethyltetrahydrofuran-3-yl)-4-fluoro-1H-benzo[d]imidazole-6-carboxylic acid] | 0.242
7 | Cc1ccc(COc2cccc(-c3cc(F)c(Cc4nc5ccc(C(=O)O)cc5n4[C@@H]4COCC4(C)C)cc3F)n2)c(F)c1 [Example 463, (S)-2-(2,5-difluoro-4-(6-((2-fluoro-4-methylbenzyl)oxy)pyridin-2-yl)benzyl)-1-(4,4-dimethyltetrahydrofuran-3-yl)-1H-benzo[d]imidazole-6-carboxylic acid] | 0.209
8 | COCCn1c(Cc2c(F)cc(-c3ccc(F)c(OCc4ccc(C#N)cc4F)n3)c(F)c2F)nc2c(F)cc(C(=O)O)cc21 [Example 232, 2-(4-(6-((4-cyano-2-fluorobenzyl)oxy)-5-fluoropyridin-2-yl)-2,3,6-trifluorobenzyl)-4-fluoro-1-(2-methoxyethyl)-1H-benzo[d]imidazole-6-carboxylic acid] | 0.118
9 | C[C@H]1COC[C@H]1n1c(Cc2cc(F)c(-c3ccc(F)c(OCc4ccc(C#N)cc4F)n3)cc2F)nc2ccc(C(=O)O)cc21 [Example 486, 2-(4-(6-((4-cyano-2-fluorobenzyl)oxy)-5-fluoropyridin-2-yl)-2,5-difluorobenzyl)-1-((3S,4R)-4-methyltetrahydrofuran-3-yl)-1H-benzo[d]imidazole-6-carboxylic acid] | 0.054
10 | COCCn1c(Cc2cc(F)c(-c3cccc(OCc4ccc(C)nc4C)n3)cc2F)nc2ccc(C(=O)O)cc21 [Example 25] | 7.55
11 | COCCn1c(Cc2cc(F)c(-c3ccc(F)c(OCc4ccc(C#N)cc4)n3)cc2F)nc2ccc(C(=O)O)c(F)c21 [Example 366, 2-(4-(6-((4-cyanobenzyl)oxy)-5-fluoropyridin-2-yl)-2,5-difluorobenzyl)-7-fluoro-1-(2-methoxyethyl)-1H-benzo[d]imidazole-6-carboxylic acid] | 1.17

Source: patent US12570642B2, “GLP-IR modulating compounds” (Gilead Sciences, Inc., priority 2021, dated 2026)
